Holding throughout (type): in vivo
Experiment [1] deals with brown rice planthoppers (Nilaparvata lugens). Nature of the experiment: Insecticidal test for brown rice planthoppers. Particulars: Nilaparvata lugens, 144 h; 500 ppm chemical solution, rice leaf sheaths soaked, third-instar larvae, six days, 25°C; read-out: death rate. Summed up: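 Rice leaf sheaths dipped ~10 s in 500 ppm compound solution (emulsion diluted in water with spreader), air-dried, then infested with five third-instar larvae per tube at 25 °C. Mortality scored after 6 days, death rate calculated, in duplicate.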

Experiment [2] deals with green peach aphids (Myzus persicae). Kind of experiment: Insecticidal test for green peach aphids. As to conditions: Myzus persicae, foliar, 144 h; 500 ppm chemical solution sprinkled (2.5 mg/cm^2), wingless imagoes on leaf disc, six days, 25°C; read-out: death rate. As to the method: Wet absorbent cotton was laid on each glass dish having an inner diameter of 3 cm, a Chinese olive leaf cut into a circle having a diameter of 3 cm was placed thereon, and four wingless green peach aphids (Myzus persicae) imagoes were released. After a day, a 10% by mass emulsion of the presently invented compound prepared according to the above formulation example for an emulsion was diluted with water containing a spreader to prepare a chemical solution having a concentration of 500 ppm. The chemical solution prepared was sprinkled (2.5 mg/cm^2) with a rotary tower sprinkler, and the dishes were capped and accommodated in a thermostatic room at 25°C. […] The test was carried out in duplicate.

The test system of experiment [3] is diamondback moths (Plutella xylostella). Nature of the experiment: Insecticidal test for diamondback moths. As to conditions: Plutella xylostella, 144 h; 500 ppm chemical solution, leaves soaked, third-instar larvae, six days, 25°C; read-out: death rate. In outline:
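Leaves dipped about 10 s in a 500 ppm aqueous dilution of an emulsion formulation with spreader, then air-dried. Five third-instar larvae released per dish and held at 25 °C. Tested in duplicate.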

The test system of experiment [4] is cat fleas (Ctenocephalides felis). Nature of the experiment: whole plant or invertebrate. As to conditions: 72 h, read-out: death rate. In outline:
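Glass containers (25 cm² inner surface) were coated with 250 µl of a 1000 ppm acetone solution, and the acetone was evaporated to leave a dry film. Five mixed-sex adult fleas were confined per container at 25°C. Mortality was scored after 3 days.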

Experiment [5] relates to western flower thrips (Frankliniella occidentalis). Kind of experiment: Insecticidal activity against western flower thrips. As to conditions: Frankliniella occidentalis, 48 h; 500 ppm chemical solution sprinkled (2.5 mg/cm^2), larvae on common bean leaf, after 2 days; read-out: death rate. Summed up: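 Bean leaf squares on wet filter paper inoculated with 20 larvae. Compound emulsion diluted with spreader-containing water to 500 ppm and sprayed at 2.5 mg/cm^2 by rotary tower. Run in duplicate.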

SMILES strings stand for the structures. Some results are limits rather than exact numbers.

On to `O=C(Nc1cncc(F)c1)C1=C(O)CC(c2cnc(Cl)c(-c3cnccc3F)c2)NC1=O` (stereo not drawn) [2-137], for which the mortality at 500 µg/mL in experiment [1], in experiment [2], in experiment [3] and in experiment [5] was no less than 90% throughout. The mortality at 10 µg/cm2 in experiment [4] was no less than 50%.
In the case of `O=C(Nc1ccc(F)cc1)C1=C(O)CC(c2nc(-c3cccc(Br)c3)no2)NC1=O` (stereo not drawn) [3-028], the mortality at 500 µg/mL in experiment [1], in experiment [2], in experiment [3] and in experiment [5] was no less than 90% in each case. In experiment [4], the mortality at 10 µg/cm2 was no less than 50%.
Take `O=C(Nc1cc(F)ccn1)C1=C(O)CC(c2nc(-c3c(F)cc(F)cc3F)no2)NC1=O` (stereo not drawn) [3-144]: the mortality at 500 µg/mL in experiment [1], in experiment [2], in experiment [3] and in experiment [5] was no less than 90% each time. The mortality at 10 µg/cm2 in experiment [4] was no less than 50%.
With `O=C(Nc1ccc(F)cn1)C1=C(O)CC(c2nc(-c3snc(Cl)c3Cl)no2)NC1=O` (stereo not drawn) [3-254], the mortality at 500 µg/mL in experiment [1], in experiment [2], in experiment [3] and in experiment [5] was no less than 90% each time. The mortality at 10 µg/cm2 in experiment [4] is no less than 50%.
With `O=C(Nc1cc(F)ccn1)C1=C(O)CC(c2nc(-c3cccc(F)c3F)no2)NC1=O` (stereo not drawn) [3-049], the mortality at 500 µg/mL in experiment [1], in experiment [2], in experiment [3] and in experiment [5] was no less than 90% throughout. Further, in experiment [4], the mortality at 10 µg/cm2 is no less than 50%.
`O=C(Nc1ccc(F)cc1)C1=C(O)CC(c2nc(-c3ccc(F)c(F)c3)no2)NC1=O` (stereo not drawn) [3-027]: the mortality at 500 µg/mL in experiment [1], in experiment [2], in experiment [3] and in experiment [5] was no less than 90% each time. Besides, the mortality at 10 µg/cm2 in experiment [4] was no less than 50%.
`O=C(Nc1ncccc1F)C1=C(O)CC(c2cnc(Cl)c(-c3cnccc3F)c2)NC1=O` (stereo not drawn) [2-141]: the mortality at 500 µg/mL in experiment [1], in experiment [2], in experiment [3] and in experiment [5] was no less than 90% throughout. Further, in experiment [4], the mortality at 10 µg/cm2 was no less than 50%.
Take `O=C(Nc1cnccn1)C1=C(O)CC(c2nc(-c3ccc(F)nc3)no2)NC1=O` (stereo not drawn) [3-257]: the mortality at 500 µg/mL in experiment [1], in experiment [2], in experiment [3] and in experiment [5] was no less than 90% in each case. The mortality at 10 µg/cm2 in experiment [4] was no less than 50%.
On to `Cc1cccnc1NC(=O)C1=C(O)CC(c2nc(-c3ccc(F)cc3F)no2)NC1=O` (stereo not drawn) [3-174], for which the mortality at 500 µg/mL in experiment [1], in experiment [2], in experiment [3] and in experiment [5] was no less than 90% in each case. In addition, the mortality at 10 µg/cm2 in experiment [4] was no less than 50%.
Consider `O=C(Nc1ccc(F)cc1)C1=C(O)CC(c2nc(-c3ccc(F)cc3F)no2)NC1=O` (stereo not drawn) [3-131], for which the mortality at 500 µg/mL in experiment [1], in experiment [2], in experiment [3] and in experiment [5] was no less than 90% each time. Also, in experiment [4], the mortality at 10 µg/cm2 is no less than 50%.
Take `O=C(Nc1ccc(F)cn1)C1=C(O)CC(c2nc(-c3ncco3)no2)NC1=O` (stereo not drawn) [3-265]: the mortality at 500 µg/mL in experiment [1], in experiment [2], in experiment [3] and in experiment [5] was no less than 90% each time. Also, in experiment [4], the mortality at 10 µg/cm2 was no less than 50%.
Regarding `Cc1cccc(-c2cc(C3CC(O)=C(C(=O)Nc4ncccn4)C(=O)N3)cnc2Cl)c1` (stereo not drawn) [2-271], the mortality at 500 µg/mL in experiment [1], in experiment [2], in experiment [3] and in experiment [5] was no less than 90% in each case. The mortality at 10 µg/cm2 in experiment [4] was no less than 50%.

The values are drawn from patent EP4582413A1, “ARYLTETRAHYDROPYRIDINE COMPOUND AND PEST CONTROL AGENT” (priority 2022, dated 2024).
